# Test results published in patent US20140230091A1, “MODIFIED PLANTS WITH INCREASED OIL CONTENT” (BROOKHAVEN SCIENCE ASSOCIATES, LLC, priority 2011, published 2014).
# Assays:
# [1] = system: Brassica napus cv Jet Neuf suspension cell cultures; experiment: Cell culture growth and analysis of B. napus suspension cells fed Tween-80; type: cell-based; conditions: concentrations up to 10 mM
# Procedure: Brassica napus cv Jet Neuf suspension cell cultures were grown in NLN medium (Lichter 1982, Z. Pflanzenphysiol, 105, 427-434) with modifications (Shi et al. 2008, Plant Cell Tiss Org, 92 131-139). Cells were grown shaking at 160 rpm at 25° C. in either 50 mL or 100 mL volumes (in 125 mL or 250 mL flasks, respectively) under constant fluorescent light at 50 […]. Medium was refreshed every 48 h for experiments lasting longer than two days. Tween-esters were obtained from Sigma (St. Louis, Mo. USA). A 150 mM stock solution was made by dissolving 9.8 g in 50 mL of water and it was filter sterilized before addition to cultures. Subculturing was done every eight days and new cultures were inoculated with about 200 mg of cells. Cells were harvested by filtering with a Buchner funnel, were rinsed three times with distilled water, and were frozen immediately in liquid N2 in preweighed aluminum foil pouches. Dry weight to fresh weight ratio was determined by lyophilizing a known fresh weight of cells. For SDS-PAGE, proteins were extracted in 3 volumes (w/v) of 50 mM Tris-Cl, pH 7.5, 10 mM KCl, 5 mM MgCl2, 1 mM EDTA, 1 mM DTT, 0.1% Triton X-100, and were quantified by Bradford assay.
# In order to study the feedback regulation of fatty acid synthesis it was necessary to first establish conditions where fatty acids could be fed while minimizing any negative pleiotropic effects. […]
# [2] = system: fatty acid synthesis in B. napus cells; experiment: 14C-acetate / 14C-malonate labeling of lipids (feedback inhibition of fatty acid synthesis); type: cell-based, Brassica napus
# Procedure: All radioisotopes were obtained from American Radiolabeled Chemicals (St. Louis, Mo. USA). Labeling was conducted on cells 5 days after subculturing with a culture density of ˜20 mg FW mL^−1 and that had medium refreshed 16 h prior. For labeling, three 1 mL aliquots of cells were carefully removed from each flask and were labeled with either 0.2 μCi of 1,2-^14C-acetate (50-60 mCi mmol^−1) or 2-^14C-malonate (40-60 mCi mmol^−1) for 15 minutes at 25° C. with occasional shaking. Haloxyfop (Sigma) was dissolved in DMSO and added 30 min prior to labeling. Lipids were extracted and separated by TLC as described above. Radioactivity was detected by phosphorimaging and was quantified using ImageQuant software (GE Healthcare, Piscataway, N.J., USA). Incorporation of label into individual fatty acids was determined by making FAMEs as described above, separating the methyl esters by TLC as described in (Koo, Fulda, Browse and Ohlrogge 2005, Plant J, 44, 620-632) and measuring radioactivity by phosphorimaging.
# Feedback inhibition of fatty acid synthesis was measured by the addition of a ^14C-acetate tracer. […] Sterol synthesis is dependent on acetyl-CoA and ATP, both of which are required for fatty acid synthesis. Therefore, if fatty acid synthesis is inhibited due to substrate limitation; so should be sterol biosynthesis. ^14C-acetate incorporation into sterols was unaffected by Tween-80 feeding, while incorporation into free fatty acids mirrored that of total lipids (FIG. 5), showing that the effect is restricted to fatty acid synthesis. […] Three hour time points were used for the remainder of this study to separate the period of maximum feedback inhibition from any lipid homeostatic mechanisms arising from the gross fatty acid compositional changes caused by long term Tween-80 feeding.
# Plants contain plastidic and cytosolic ACCase and F AS enzyme systems, both of which are capable of incorporating ^14C-acetate into fatty acids. Comparing the distribution of label in individual fatty acid species can therefore provide information on the relative contribution of these pathways. […] The degree to which ^14C-acetate incorporation is inhibited by haloxyfop is proportional to cytosolic elongation activity, whereas haloxyfop-resistant incorporation is from the de nova pathway inside the plastid.
# To separate these possibilities, we exploited the fact that exogenous malonate can be converted to malonyl-CoA and used by FAS, bypassing the ACCase reaction (Kannangara et al. 1973, Plant Physiol, 52, 156-161). If ACCase is the only point of inhibition then the rate of ^14C-malonate labeling of de novo fatty acids should be the same in cultures with or without Tween-80. […] Therefore ACCase, and not F AS, is inhibited by Tween-80 feeding. When combined, the data from FIG. 6 unambiguously identify plastidic ACCase as the target of Tween-80 induced feedback inhibition.
substance,measurement,setting,value
Tween-80,effect on growth rate,[1],no effect
same,reduction of incorporation of 14C-acetate into fatty acids,[2]; 3 hours of 10 mM Tween-80 feeding,40%
same,incorporation of 14C-malonate into 16 and 18 carbon fatty acids,"[2]; 3 hours of 10 mM Tween-80 feeding, compared to 14C-acetate labeled controls",not inhibited
same,14C-acetate incorporation into sterols,[2]; Tween-80 feeding,unaffected
same,reversibility of feedback inhibition after removal,[2]; after removal of Tween-80 following 3 hour exposure to 10 mM,completely reversible
same,haloxyfop-resistant 14C-acetate incorporation,[2]; cultures with 10 mM Tween-80,reduced by about half
same,Relative 14C-acetate incorporation (% control),"[2]; relative to a control sample without any Tweens, mean of three repeats ± SD",50.9 ± 7.0 % control
same,reduction of rate of 14C-acetate incorporation into lipids,[2]; three hours after addition of 10 mM Tween-80,40%
